Results on 34 molecules are retold here after US20080312192A1, “Diaryl Urea Derivatives in the Treatment of Protein Kinase Dependent Diseases” (priority 2003, published 2008).

Counter-ions that a name gives are not always drawn.

The target of this test is T1, Flt-3 (Homo sapiens, UniProt P36888).
T1 construct: amino acids 563-993 of the cytoplasmic kinase domain of human Flt-3; made in house; host or cells: Sf9 insect cells (baculovirus, vector pFbacG01)
T1 sequence (P36888 563-993): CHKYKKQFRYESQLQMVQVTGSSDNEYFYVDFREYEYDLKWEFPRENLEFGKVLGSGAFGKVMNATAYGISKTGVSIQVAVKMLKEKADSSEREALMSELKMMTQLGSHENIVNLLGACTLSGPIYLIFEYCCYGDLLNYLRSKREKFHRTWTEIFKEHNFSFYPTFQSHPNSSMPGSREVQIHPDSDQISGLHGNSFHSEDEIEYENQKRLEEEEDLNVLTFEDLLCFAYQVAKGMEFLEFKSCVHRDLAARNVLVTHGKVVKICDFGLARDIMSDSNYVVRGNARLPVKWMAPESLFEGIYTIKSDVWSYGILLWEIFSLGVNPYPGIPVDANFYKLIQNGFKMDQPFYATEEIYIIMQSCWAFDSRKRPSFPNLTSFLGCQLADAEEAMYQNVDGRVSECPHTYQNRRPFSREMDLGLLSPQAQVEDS
In words: Flt-3 kinase inhibition (GST-Flt-3, 33P incorporation into poly(Glu,Tyr)). The format is biochemical. Here is the method: Flt-3 kinase inhibition is determined as follows: The baculovirus donor vector pFbacG01 (GIBCO) is used to generate a recombinant baculovirus expressing the amino acid region amino acids 563-993 of the cytoplasmic kinase domain of human Flt-3. The coding sequence for the cytoplasmic domain of Flt-3 is amplified by PCR from human c-DNA libraries (Clontech). The amplified DNA fragments and the pFbacG01 vector are made compatible for ligation by digestion with BamHI and HindIII. Ligation of these DNA fragments results in the baculovirus donor plasmid pFbacG01-Flt-3. The production of the viruses, the expression of proteins in Sf9 cells and the purification of the GST-fused proteins are performed as follows:
Production of virus: The baculovirus donor plasmid (pFbacG01-Flt-3) containing the Flt-3 kinase domain is transfected into the DH10Bac cell line (GIBCO) and the transfected cells are plated on selective agar plates. Colonies without insertion of the fusion sequence into the viral genome (carried by the bacteria) are blue. Single white colonies are picked and viral DNA (bacmid) is isolated from the bacteria by standard plasmid purification procedures. Sf9 or Sf21 cells (American Type Culture Collection) are then transfected in flasks with the viral DNA using Cellfectin reagent.
Protein expression in Sf9 cells: Virus containing media is collected from the transfected cell culture and used for infection to increase its titre. Virus containing media obtained after two rounds of infection is used for large-scale protein expression. For large-scale protein expression 100 cm^2 round tissue culture plates are seeded with 5×10^7 cells/plate and infected with 1 mL of virus-containing media (approx. 5 MOIs). After 3 days the cells are scraped off the plate and centrifuged at 500 rpm for 5 min. Cell pellets from 10-20, 100 cm^2 plates are resuspended in 50 mL of ice-cold lysis buffer (25 mM Tris-HCl, pH 7.5, 2 mM EDTA-1% NP-40. 1 mM DTT, 1 mM PMSF). The cells are stirred on ice for 15 min and then centrifuged at 5000 rpms for 20 min.
Purification of GST-tagged protein: The centrifuged cell lysate is loaded onto a 2 mL glutathione-sepharose column (Pharmacia) and washed three times with 10 mL of 25 mM Tris-HCl, pH 7.5, 2 mM EDTA, 1 mM DTT, 200 mM NaCl. The GST-tagged protein is then eluted by 10 applications (1 mL each) of 25 mM Tris-HCl, pH 7.5, 10 mM reduced-glutathione, 100 mM NaCl, 1 mM DTT, 10% Glycerol and stored at −70° C.
Measurement of enzyme activity: Tyrosine protein kinase assays with purified GST-Flt-3 protein are carried out in a final volume of 30 μL containing 200-1800 ng of enzyme protein (depending on the specific activity), 20 mM Tris-HCl, pH 7.6, 3 mM MnCl2, 3 mM MgCl2, 1 mM DTT, 10 μM Na3VO4, 3 μg/mL poly(Glu, Tyr) 4:1, 1% DMSO, 8.0 μM ATP and 0.1 μCi [γ^33 P] ATP. The activity is assayed in the presence or absence of inhibitors, by measuring the incorporation of ^33P from [γ^33P] ATP into the poly(Glu,Tyr) substrate. The assay (30 μL) is carried out in 96-well plates at ambient temperature for 20 min and terminated by the addition of 20 μL of 125 mM EDTA. Subsequently, 40 μL of the reaction mixture is transferred onto Immobilon-PVDF membrane (Millipore, Bedford, Mass., USA) previously soaked for 5 min with methanol, rinsed with water, then soaked for 5 min with 0.5% H3PO4 and mounted on vacuum manifold with disconnected vacuum source. After spotting all samples, vacuum is connected and each well rinsed with 200 μL 0.5% H3PO4. Membranes are removed and washed 4× on a shaker with 1.0% H3PO4, once with ethanol. Membranes are counted after drying at ambient temperature, mounting in Packard TopCount 96-well frame, and addition of 10 μL/well of Microscint™ (Packard). IC50 values are calculated by linear regression analysis of the percentage inhibition of each compound in duplicate, at four concentrations (usually 0.01, 0.1, 1 and 10 μM). One unit of protein kinase activity is defined as 1 nmole of ^33P transferred from [γ3P] […]
One may read the IC50 as the concentration that gives 50% inhibition. Turning to `CC(C)(C)N1CCN(Cc2ccc(NC(=O)Nc3ccc(Oc4cc(N)ncn4)cc3)cc2C(F)(F)F)CC1` [Example 34c.3], half-maximal inhibition (IC50) was put at 350 nM.

In turn, `Nc1nccc(Oc2ccc(NC(=O)Nc3cc(-c4ccccn4)cc(C(F)(F)F)c3)cc2)n1` [Example 52d] came in with a concentration for half-maximal inhibition (IC50) of 260 nM.

Consider `CN(Cc1ccc(NC(=O)Nc2ccc(Oc3cc(Cl)ncn3)cc2)cc1C(F)(F)F)C(C)(C)C` [Example 21, N-[4-(6-Chloro-pyrimidin-4-yloxy)-phenyl]-N′-[4-(methyl-^tertbutyl-amino-methyl)-3-trifluoromethyl-phenyl]-urea], for which the half-maximal inhibitory concentration (IC50) amounted to 1800 nM.

Molecule `CC(C)N1CCN(Cc2ccc(NC(=O)Nc3ccc(Oc4cc(Cl)ncn4)cc3)cc2C(F)(F)F)CC1` [Example 15, N-[4-(6-Chloro-pyrimidin-4-yloxy)-phenyl]-N′-[4-(4-isopropylpiperazin-1-ylmethyl)-3-trifluoromethyl-phenyl]-urea] showed an IC50 of 600 nM.

Consider `CCN1CCN(Cc2ccc(NC(=O)Nc3ccc(Oc4ccnc(N)n4)cc3)cc2)CC1` [Example 51e.1], for which the IC50 was determined as 250 nM. Compared with the last molecule, the IC50 is about 2.4-fold lower.

`CNc1cc(Oc2ccc(NC(=O)Nc3ccc(CN4CCCC4)c(C(F)(F)F)c3)cc2)ncn1` [Example 34j.1] registered a half-maximal inhibitory concentration (IC50) of 250 nM.

`CCN(CC)Cc1ccc(NC(=O)Nc2ccc(Oc3cc(N)ncn3)cc2)cc1C(F)(F)F` [Example 34m.3]: the IC50 came to 200 nM. This IC50 and that of the molecule before are within 1.5-fold of each other.

`CNc1cc(Oc2ccc(NC(=O)Nc3ccc(CN(C)C)c(C(F)(F)F)c3)cc2)ncn1` [Example 34l.1] had an IC50 of 620 nM.

`CC(C)N1CCN(Cc2cc(NC(=O)Nc3ccc(Oc4cc(N)ncn4)cc3)cc(C(F)(F)F)c2)CC1` [Example 8, N-[4-(6-Amino-pyrimidin-4-yloxy)-phenyl]-N′-[3-(4-isopropylpiperazin-1-ylmethyl)-5-trifluoromethyl-phenyl]-urea] had a half-maximal inhibitory concentration (IC50) of 510 nM. This IC50 and that of the molecule before are within 1.5-fold of each other.

For the molecule `CCN1CCN(Cc2ccc(NC(=O)Nc3ccc(Oc4ccnc(N)n4)cc3)cc2C)CC1` [Example 51d.1], the IC50 is 91 nM.

Turning to `CNc1nccc(Oc2ccc(NC(=O)Nc3ccc(Cn4ccnc4C)c(C(F)(F)F)c3)cc2)n1` [Example 51b.2], the IC50 worked out at 170 nM.

`CNc1cc(Oc2ccc(NC(=O)Nc3ccc(CN4CCN(C(C)(C)C)CC4)c(C(F)(F)F)c3)cc2)ncn1` [Example 34c.1]: 540 nM corresponded to half-maximal inhibition (IC50).

Consider `O=C(Nc1ccc(Oc2cc(NC3CCC(O)CC3)ncn2)cc1)Nc1ccc(N2CCOCC2)c(C(F)(F)F)c1` (stereo not shown) [Example 55d], for which the IC50 amounted to 970 nM.

Take `Nc1cc(Oc2ccc(NC(=O)Nc3ccc(N4CCC(N5CCCCC5)CC4)c(C(F)(F)F)c3)cc2)ncn1` [Example 34s.2]: the IC50 was 240 nM.

For `CNc1cc(Oc2ccc(NC(=O)Nc3ccc(CN4CCN(C(C)C)CC4)c(C(F)(F)F)c3)cc2)ncn1` [Example 16, N-[4-(6-Methylamino-pyrimidin-4-yloxy)-phenyl]-N′-[4-(4-isopropylpiperazin-1-ylmethyl)-3-trifluoromethyl-phenyl]-urea trifluoroacetate], the IC50 stood at 360 nM.

As to `Cc1ncn(Cc2ccc(NC(=O)Nc3ccc(Oc4cc(N)ncn4)cc3)cc2C(F)(F)F)c1C` [Example 34d.3], half-maximal inhibition (IC50) required 290 nM.

In the case of `Cc1nccn1Cc1ccc(NC(=O)Nc2ccc(Oc3ccnc(N)n3)cc2)cc1C(F)(F)F` [Example 51b.1], the IC50 stood at 130 nM.

In turn, `Nc1nccc(Oc2ccc(NC(=O)Nc3cccc(C(F)(F)F)c3)cc2)n1` [Example 52b] returned an IC50 of 80 nM.

As to `CNc1cc(Oc2ccc(NC(=O)Nc3ccc(CN4CCN(Cc5ccc(OC)cc5)CC4)c(C(F)(F)F)c3)cc2)ncn1` [Example 34p.1], the IC50 is 590 nM.

The molecule `CNc1cc(Oc2ccc(NC(=O)Nc3ccc(CN4CCOCC4)c(C(F)(F)F)c3)cc2)ncn1` [Example 34k.1] gave an IC50 of 130 nM.

Consider `Cc1nccn1Cc1ccc(NC(=O)Nc2ccc(Oc3cc(N)ncn3)cc2)cc1C(F)(F)F` [Example 34e.3], for which inhibition was half-maximal at 79 nM (IC50).

As for `CN1CCN(Cc2ccc(NC(=O)Nc3ccc(Oc4cc(Cl)ncn4)cc3)cc2C(F)(F)F)CC1` [Example 14, N-[4-(6-Chloro-pyrimidin-4-yloxy)-phenyl]-N′-[4-(4-methylpiperazin-1-ylmethyl)-3-trifluoromethyl-phenyl]-urea], the IC50 was found to be 360 nM.

For `NC(=O)c1cc(NC(=O)Nc2ccc(Oc3cc(N)ncn3)cc2)cc(C(F)(F)F)c1` [Example 38, 3-{3-[4-(6-Amino-pyrimidin-4-yloxy)-phenyl]-ureido}-5-trifluoromethyl-benzamide], the IC50 turned out to be 354 nM.

`CNc1cc(Oc2ccc(NC(=O)Nc3ccc(CN4CCC4)c(C(F)(F)F)c3)cc2)ncn1` [Example 34b.1] displayed an IC50 of 360 nM. This IC50 and that of the molecule before are within 1.5-fold of each other.

`CN(Cc1ccc(NC(=O)Nc2ccc(Oc3cc(N)ncn3)cc2)cc1C(F)(F)F)C(C)(C)C` [Example 34a.3] displayed an IC50 of 830 nM.

`CN(C)CCCN(C)Cc1ccc(NC(=O)Nc2ccc(Oc3cc(N)ncn3)cc2)cc1C(F)(F)F` [Example 34n.3]: the IC50 came out at 200 nM.

`CNC(=O)c1cc(NC(=O)Nc2ccc(Oc3cc(N)ncn3)cc2)cc(C(F)(F)F)c1` [Example 43, 3-{3-[4-(6-Amino-pyrimidin-4-yloxy)-phenyl]-ureido}-N-methyl-5-trifluoromethyl-benzamide] showed a concentration for half-maximal inhibition (IC50) of 160 nM.

The molecule `Nc1cc(Oc2ccc(NC(=O)Nc3ccc(CN4CCCC4)c(C(F)(F)F)c3)cc2)ncn1` [Example 34j.3] showed an IC50 of 283 nM.

As to `CNc1cc(Oc2ccc(NC(=O)Nc3ccc(CN4CC[N+]([O-])(C(C)C)CC4)c(C(F)(F)F)c3)cc2)ncn1` [Example 17, N-[4-(6-Methylamino-pyrimidin-4-yloxy)-phenyl]-N′-[4-(4-isopropyl-4-oxy-piperazin-1-ylmethyl)-3-trifluoromethyl-phenyl]-urea trifluoroacetate], it took 940 nM to reach half-maximal inhibition (IC50).

Turning to `CC(C)(C)CN1CCN(Cc2ccc(NC(=O)Nc3ccc(Oc4cc(N)ncn4)cc3)cc2C(F)(F)F)CC1` [Example 34t.2], it took 290 nM to reach half-maximal inhibition (IC50).

`CC(C)(C)CN1CCN(c2ccc(NC(=O)Nc3ccc(Oc4cc(N)ncn4)cc3)cc2C(F)(F)F)CC1` [Example 34u.2] yielded an IC50 of 1500 nM.

`CCN(CC)Cc1ccc(NC(=O)Nc2ccc(Oc3cc(NC)ncn3)cc2)cc1C(F)(F)F` [Example 34m.1] yielded an IC50 of 400 nM.

`CNC(=O)c1cc(NC(=O)Nc2ccc(Oc3cc(NC)ncn3)cc2)cc(C(F)(F)F)c1` [Example 41, 3-{3-[4-(6-Methylamino-pyrimidin-4-yloxy)-phenyl]-ureido}-N-methyl-5-trifluoromethyl-benzamide] returned an IC50 of 420 nM.

Regarding `CCN1CCN(Cc2ccc(NC(=O)Nc3ccc(Oc4ccnc(NC)n4)cc3)cc2)CC1` [Example 51e.2], the IC50 is 910 nM.
